Assay results published in patent publication US20230082430A1 (C4 Therapeutics, Inc., priority 2019, published 2023).

Tested on: NCIH929.1 cells
Test: Cell viability assay for Table 1 (CellTiter-Glo 2.0, ATP quantification, 96 hr)
Assay type: cell-based
Details: NCIH929.1 cell viability, top concentration 1 μM, 10 points half log titration, cytostatic control
Experimental: Example 171. Cell Viability Assay for Table 1
RPMI 1640 medium, fetal bovine serum (FBS) and 2-mercaptoethanol were purchased from Gibco (Grand Island, N.Y., USA). CellTiter-Glo® 2.0 Assay was purchased from Promega (Madison, Wis., USA). NCIH929.1 cell line was purchased from ATCC (Manassas, Va., USA). Cell culture flasks and 384-well microplates were acquired from VWR (Radnor, Pa., USA).
At the same day of compound treatment, CellTiter-Glo® 2.0 was added to a plate with cells treated in the absence of the test compound to establish Cytostatic control value (Gm).

| SMILES | GI50 [nM] |
| --- | --- |
| CC(C)(C)OC(=O)N1CCC(n2cc(Cc3ccc4c5c(cccc35)C(=O)N4C3CCC(=O)NC3=O)cn2)CC1 (stereo not shown) [Compound 2, tert-Butyl 4-(4-((1-(2,6-Dioxopiperidin-3-yl)-2-oxo-1,2-dihydrobenzo[cd]indol-6-yl)methyl)-1H-pyrazol-1-yl)piperidine-1-carboxylate] | < 1 |
| O=C1CCC(N2C(=O)c3cccc4c(Cc5cnn(C6CCN(C(=O)C78C9C%10C%11C9C7C%11C%108)CC6)c5)ccc2c34)C(=O)N1 (stereo not shown) [Compound 3, 3-(6-((1-(1-(Cubane-1-carbonyl)piperidin-4-yl)-1H-pyrazol-4-yl)methyl)-2-oxobenzo[cd]indol-1(2H)-yl)piperidine-2,6-dione] | < 1 |
| CC1(C(=O)N2CCC(n3cc(Cc4ccc5c6c(cccc46)C(=O)N5C4CCC(=O)NC4=O)cn3)CC2)CCC1 (stereo not shown) [Compound 4, 3-(6-((1-(1-(1-Methylcyclobutane-1-carbonyl)piperidin-4-yl)-1H-pyrazol-4-yl)methyl)-2-oxobenzo[cd]indol-1(2H)-yl)piperidine-2,6-dione] | < 1 |
| CC1(n2cc(Cc3ccc4c5c(cccc35)C(=O)N4C3CCC(=O)NC3=O)cn2)CCN(C(=O)C23C4C5C6C4C2C6C53)CC1 (stereo not shown) [Compound 18, 3-(6-((1-(1-(Cubane-1-carbonyl)-4-methylpiperidin-4-yl)-1H-pyrazol-4-yl)methyl)-2-oxobenzo[cd]indol-1(2H)-yl)piperidine-2,6-dione] | < 1 |
